From ChEMBL document CHEMBL1201862, “PubChem BioAssay data set” (2004)
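Protocol summary: plate cells (96-well), add compound at 5 concentrations, incubate 48 h, interpolate endpoints linearly. At the GI50, growth is halved.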 Calls of active or inactive are those of the source. Cut-off read from the data, not from the text of the source: active = GI50 up to about 1.1 µM and inactive = higher.

Tests used:
Assay in all cases: growth of human tumour cells (NCI), 48 h
HOP-18 = test system: HOP-18
XF498 = test system: XF498
DMS-273 = test system: DMS-273
SNB-78 = test system: SNB-78
DLD-1 = test system: DLD-1
LXFL 529 = test system: LXFL 529
RXF 631 = test system: RXF 631
DMS-114 = test system: DMS-114

Measured: GI50

COC(=O)C1=C(C(=O)OC)N(C(C)C)[C@H]2C(C(=O)OC)=C(C(=O)OC)N(C(C)C)[C@@H]12
inactive: HOP-18 > 100 µM | XF498 > 100 µM | DMS-273 > 100 µM | SNB-78 > 100 µM | DLD-1 > 100 µM | LXFL 529 > 100 µM | RXF 631 > 100 µM | DMS-114 > 100 µM

CCOc1ccccc1N1C(=O)C(=O)C(c2nc3ccccc3o2)C(=O)C1=O
inactive: HOP-18 28.7 µM | DMS-273 > 100 µM | SNB-78 > 100 µM | DLD-1 > 100 µM | LXFL 529 > 100 µM | RXF 631 > 100 µM | DMS-114 > 100 µM

O=C1CNC(=O)c2[nH]cnc2N1
inactive: HOP-18 > 100 µM | XF498 49.3 µM | DMS-273 > 100 µM | SNB-78 > 100 µM | DLD-1 > 100 µM | LXFL 529 > 100 µM | RXF 631 39.9 µM | DMS-114 > 100 µM

CN1C(c2ccccc2)CS(=O)(=O)CS1(=O)=O (stereo not given)
inactive: HOP-18 > 100 µM | XF498 > 100 µM | DMS-273 > 100 µM | SNB-78 > 100 µM | DLD-1 > 100 µM | LXFL 529 > 100 µM | RXF 631 > 100 µM | DMS-114 > 100 µM

Clc1cc(Cl)cc(Nc2nc3ccccc3nc2-c2cccs2)c1
inactive: HOP-18 28.5 µM | XF498 28.1 µM | DMS-273 14.2 µM | SNB-78 62.5 µM | DLD-1 41.4 µM | LXFL 529 35.8 µM | RXF 631 15.8 µM

CC(=O)NC(CCCCNC(=O)N(C)N=O)C(=O)NCc1ccccc1 (stereo not given)
inactive: XF498 > 100 µM | DMS-273 > 100 µM | SNB-78 > 100 µM | DLD-1 > 100 µM | LXFL 529 > 100 µM | RXF 631 > 100 µM | DMS-114 > 100 µM

COC(=O)C(Cc1nc2ccc(Cl)cc2nc1O)C(=O)C(=O)Nc1cc(C)ccc1C (stereo not given)
inactive: HOP-18 > 100 µM | XF498 > 100 µM | DMS-273 > 100 µM | SNB-78 > 100 µM | DLD-1 > 100 µM | LXFL 529 > 100 µM | RXF 631 > 100 µM | DMS-114 > 100 µM

CSCCC(C(=O)O)N(CC1(O)OCC(O)C(O)C1O)N=O (stereo not given)
inactive: XF498 > 100 µM | DMS-273 > 100 µM | SNB-78 > 100 µM | DLD-1 > 100 µM | LXFL 529 > 100 µM | RXF 631 > 100 µM | DMS-114 > 100 µM
